Holding throughout (assay type): cell-based
Experiment [1] deals with T1, C-C chemokine receptor type 1 (Homo sapiens, UniProt P32246).
T1 sequence (P32246 whole entry): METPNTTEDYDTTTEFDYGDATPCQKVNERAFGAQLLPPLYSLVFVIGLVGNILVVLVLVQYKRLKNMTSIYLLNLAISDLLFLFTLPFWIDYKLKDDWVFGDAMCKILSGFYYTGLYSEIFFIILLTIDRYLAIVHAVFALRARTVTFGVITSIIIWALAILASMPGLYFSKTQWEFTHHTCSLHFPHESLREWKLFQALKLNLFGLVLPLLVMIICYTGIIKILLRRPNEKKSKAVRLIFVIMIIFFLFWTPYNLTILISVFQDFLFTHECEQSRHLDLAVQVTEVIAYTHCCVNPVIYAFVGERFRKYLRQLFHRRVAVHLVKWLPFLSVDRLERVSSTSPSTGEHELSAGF
Briefly: Concentration required for 50% inhibition of [125I]eotaxin binding to human CCR1 receptor expressed in CHO cells.

Experiment [2] deals with T2, C-C chemokine receptor type 3 (Homo sapiens, UniProt P51677).
T2 sequence (P51677 whole entry): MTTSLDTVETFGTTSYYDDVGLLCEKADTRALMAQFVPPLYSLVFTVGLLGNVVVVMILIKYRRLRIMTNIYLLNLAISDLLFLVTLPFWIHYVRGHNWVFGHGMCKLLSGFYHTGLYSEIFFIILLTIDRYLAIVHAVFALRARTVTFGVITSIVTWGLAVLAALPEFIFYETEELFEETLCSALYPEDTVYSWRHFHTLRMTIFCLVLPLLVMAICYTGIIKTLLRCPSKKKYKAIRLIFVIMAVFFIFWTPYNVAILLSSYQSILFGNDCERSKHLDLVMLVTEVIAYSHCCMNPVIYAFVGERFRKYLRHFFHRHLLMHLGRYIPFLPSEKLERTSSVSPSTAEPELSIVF
Briefly: Concentration required for 50% inhibition of [125I]eotaxin binding to human CCR3 receptor expressed in CHO cells.

Experiment [3] addresses T3, C-C chemokine receptor type 3 (Homo sapiens) (UniProt P51677).
T3 sequence (whole entry): T2 sequence (P51677 whole entry)
Briefly: Percent inhibition of [125I]eotaxin binding to human CCR3 receptor expressed in CHO cells at 1 uM.

Drawing on ChEMBL document CHEMBL1134433, “Discovery of a novel CCR3 selective antagonist” (Bioorg Med Chem Lett, 2001), this text covers IC50 and inhibition for 17 molecules.

Take `CCOC(=O)c1ccc2nc(SCC(=O)NC3CCN(Cc4ccc(Cl)c(Cl)c4)CC3)sc2c1`: the IC50 (in general, the concentration that gives 50% inhibition) in experiment [1] was above 10000 nM; in experiment [2], 48 nM.

As to `O=C(CSc1nc2ccccc2s1)NCC1CCCN(Cc2cccc3ccccc23)C1` (stereo not given), the inhibition (commonly the relative decrease from the control value, in per cent) in experiment [3] was 15%.

Regarding `O=C(CSc1nc2ccccc2s1)NC1CCN(Cc2ccc(Cl)cc2)CC1`, the half-inhibitory concentration (IC50) in experiment [1] turned out to be 260 nM; in experiment [2], 79 nM.

For `O=C(CSc1nc2ccccc2s1)NC1CCN(Cc2cccc(Cl)c2)CC1`, the results for the IC50 in experiment [1] and in experiment [2] were above 10000 nM and 280 nM, respectively.

Consider `O=C(CSc1nc2ccccc2s1)NCC1CCCN(CCc2ccccc2)C1` (stereo not given), for which the inhibition in experiment [3] turned out to be 0%.

In turn, `O=C(CSc1nc2ccccc2s1)NCC1CCCN(Cc2nccs2)C1` (stereo not given) returned an inhibition in experiment [3] of 0%.

Consider `CCOc1ccc2nc(SCC(=O)NC3CCN(Cc4ccc(Cl)c(Cl)c4)CC3)sc2c1`, for which the IC50 in experiment [1] came to 3600 nM; in experiment [2], 20 nM.

`O=C(CSc1nc2ccccc2s1)NCC1CCCN(Cc2ccncc2)C1` (stereo not given) registered an inhibition in experiment [3] of 0%.

In experiment [3], `O=C(CSc1nc2ccccc2s1)NCC1CCCN(Cc2cccnc2)C1` (stereo not given) returned an inhibition of 0%.

In turn, `O=C(CSc1nc2ccccc2s1)NCC1CCCN(Cc2ccc3ccccc3c2)C1` (stereo not given) gave an inhibition in experiment [3] of 5%.

With `O=C(CSc1nc2ccccc2s1)NCC1CCCN(Cc2ccccc2)C1` (stereo not given), the half-inhibitory concentration (IC50) was determined as 4200 nM in experiment [1] and 1000 nM in experiment [2].

On to `Nc1ccc2nc(SCC(=O)NC3CCN(Cc4ccc(Cl)c(Cl)c4)CC3)sc2c1`, for which the results for the IC50 in experiment [1] and in experiment [2] were 1900 nM and 2.3 nM, respectively.

`O=C(CSc1nc2ccccc2s1)NCC1CCCN(CC2CCCCC2)C1` (stereo not given) yielded an IC50 in experiment [2] of 1000 nM.

In turn, `CCCCCN1CCCC(CNC(=O)CSc2nc3ccccc3s2)C1` (stereo not given) gave an inhibition in experiment [3] of 0%.

In turn, `CCCN1CCCC(CNC(=O)CSc2nc3ccccc3s2)C1` (stereo not given) yielded an inhibition in experiment [3] of 30%.

Regarding `O=C(CSc1nc2ccccc2s1)NC1CCN(Cc2ccc(Cl)c(Cl)c2)CC1`, the values for the IC50 in experiment [1] and in experiment [2] were 450 nM and 32 nM, respectively.

Regarding `O=C(CSc1nc2ccccc2s1)NC1CCN(Cc2ccccc2)CC1`, the concentration for half-maximal inhibition (IC50) was 7100 nM in experiment [1] and 750 nM in experiment [2].
